Test results reported in patent publication EP4745137A1 (Gluetacs Therapeutics (Shanghai) Co., Ltd., priority 2023, dated 2025).

Legend:
IKZF1 = target: T1, IKZF1 (Homo sapiens, UniProt Q13422+Q96SW2); assay: Western-blot assay of substrate protein degradation in hPBMCs, IKZF1; format: cell-based; conditions: 24 hours of compound treatment, 50 nM and 500 nM tested (concentration behind the class not stated)
T1 construct: endogenous in cells; host or cells: hPBMCs (Milecell Biotechnologies)

IKZF2 = target: T2, IKZF2 (Homo sapiens, UniProt Q96SW2+Q9UKS7); assay: Western-blot assay of substrate protein degradation in hPBMCs, IKZF2; format: cell-based; conditions: 24 hours of compound treatment, 50 nM and 500 nM tested (concentration behind the class not stated)
T2 construct: endogenous in cells; host or cells: hPBMCs (Milecell Biotechnologies)

[1] = system: Human acute T lymphocytic leukemia cells (Molt-4); assay: Tumor cell proliferation inhibition (CellTiter-Meiluncell Luminescent Cell Viability Assay), Molt-4; conditions: MOLT-4, read-out: inhibitory activity (IC50, nM) against tumor cells proliferation, Molt-4
CK1α = target: T3, CK1α (Homo sapiens, UniProt P48729+Q96SW2); assay: Western-blot assay of substrate protein degradation in hPBMCs, CK1α; format: cell-based; conditions: 24 hours of compound treatment, 50 nM and 500 nM tested (concentration behind the class not stated)
T3 construct: endogenous in cells; host or cells: hPBMCs (Milecell Biotechnologies)

[2] = target: T4, human Cereblon WT GST-tagged protein (Homo sapiens, UniProt Q96SW2); assay: CRBN-binding affinity by HTRF (CEREBLON BINDING kit); conditions: HTRF inhibitory activity, CEREBLON BINDING kit; read-out: HTRF IC50
T4 construct: purchased CISBIO 64BDCRBNPEH

MV-4-11 = assay: Tumor cell proliferation inhibition (CellTiter-Meiluncell Luminescent Cell Viability Assay), MV-4-11; conditions: Homo sapiens, MV4-11, read-out: inhibitory activity (IC50, nM) against tumor cells proliferation, MV-4-11
IKZF3 = target: T5, IKZF3 (Homo sapiens, UniProt Q96SW2+Q9UKT9); assay: Western-blot assay of substrate protein degradation in hPBMCs, IKZF3; format: cell-based; conditions: 24 hours of compound treatment, 50 nM and 500 nM tested (concentration behind the class not stated)
T5 construct: endogenous in cells; host or cells: hPBMCs (Milecell Biotechnologies)

WEE1 = target: T6, WEE1 (Homo sapiens, UniProt P30291+Q96SW2); assay: Western-blot assay of substrate protein degradation in hPBMCs, WEE1; format: cell-based; conditions: 24 hours of compound treatment, 50 nM and 500 nM tested (concentration behind the class not stated)
T6 construct: endogenous in cells; host or cells: hPBMCs (Milecell Biotechnologies)

Jurkat = assay: Tumor cell proliferation inhibition (CellTiter-Meiluncell Luminescent Cell Viability Assay), Jurkat; conditions: Homo sapiens, read-out: inhibitory activity (IC50, nM) against tumor cells proliferation, Jurkat
CCRF-CEM = assay: Tumor cell proliferation inhibition (CellTiter-Meiluncell Luminescent Cell Viability Assay), CCRF-CEM; conditions: Homo sapiens; for IC50: read-out: inhibitory activity (IC50, nM) against tumor cells proliferation, CCRF-CEM
GSPT1 = target: T7, GSPT1 (Homo sapiens, UniProt P15170+Q96SW2); assay: Western-blot assay of substrate protein degradation in hPBMCs, GSPT1; format: cell-based; conditions: 24 hours of compound treatment, 50 nM and 500 nM tested (concentration behind the class not stated)
T7 construct: endogenous in cells; host or cells: hPBMCs (Milecell Biotechnologies)

MM.1S = assay: Tumor cell proliferation inhibition (CellTiter-Meiluncell Luminescent Cell Viability Assay), MM.1S; conditions: Homo sapiens, MM1.S, read-out: inhibitory activity (IC50, nM) against tumor cells proliferation, MM.1S
Kasumi-1 = assay: Tumor cell proliferation inhibition (CellTiter-Meiluncell Luminescent Cell Viability Assay), Kasumi-1; conditions: Homo sapiens
Description: On the following day, the test compounds of the present disclosure were subjected to serial dilution. […] Subsequently, 0.5 µL of the test compound dilution was transferred into the 96-well plate containing the cells, with each well containing 100 µL of cell culture medium. […] Into the 96-well plate, the diluted test compounds and corresponding detection reagents were added, resulting in final test compound concentrations of 500 nM and 10 nM, respectively. The experimental procedure is described below using the diluted 2 µM test compound as an example.
After the cells were treated with the compounds of the present disclosure for a specified period (the treatment durations were shown in Table 3), the cell viability assay reagent was added to the culture medium according to the kit's instructions to determine cell viability. […] All controls were treated using the same procedure as the compounds of the present disclosure. The growth inhibition curves for the compounds of the present disclosure were plotted using Prism GraphPad software, and the IC50 values were calculated therefrom.

[3] = system: Human breast cancer cells (MDA-MB-231); assay: Tumor cell proliferation inhibition (CellTiter-Meiluncell Luminescent Cell Viability Assay), MDA-MB-231

T2 sequence (Q9UKS7 whole entry): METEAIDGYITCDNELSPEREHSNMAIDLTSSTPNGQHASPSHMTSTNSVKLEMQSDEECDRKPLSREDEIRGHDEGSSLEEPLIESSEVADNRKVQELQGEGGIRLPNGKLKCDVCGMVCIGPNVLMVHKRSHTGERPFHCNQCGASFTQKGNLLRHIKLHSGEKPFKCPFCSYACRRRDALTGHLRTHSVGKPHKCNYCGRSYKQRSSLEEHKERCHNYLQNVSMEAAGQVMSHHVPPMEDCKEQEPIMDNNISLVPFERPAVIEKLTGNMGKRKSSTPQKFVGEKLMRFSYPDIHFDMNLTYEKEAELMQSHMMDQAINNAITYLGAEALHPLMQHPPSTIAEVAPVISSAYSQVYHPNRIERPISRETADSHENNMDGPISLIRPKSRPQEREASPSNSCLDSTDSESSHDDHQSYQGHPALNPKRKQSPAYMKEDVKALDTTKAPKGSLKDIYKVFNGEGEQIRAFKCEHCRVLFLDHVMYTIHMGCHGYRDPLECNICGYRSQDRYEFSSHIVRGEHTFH
T2 sequence (Q96SW2 whole entry): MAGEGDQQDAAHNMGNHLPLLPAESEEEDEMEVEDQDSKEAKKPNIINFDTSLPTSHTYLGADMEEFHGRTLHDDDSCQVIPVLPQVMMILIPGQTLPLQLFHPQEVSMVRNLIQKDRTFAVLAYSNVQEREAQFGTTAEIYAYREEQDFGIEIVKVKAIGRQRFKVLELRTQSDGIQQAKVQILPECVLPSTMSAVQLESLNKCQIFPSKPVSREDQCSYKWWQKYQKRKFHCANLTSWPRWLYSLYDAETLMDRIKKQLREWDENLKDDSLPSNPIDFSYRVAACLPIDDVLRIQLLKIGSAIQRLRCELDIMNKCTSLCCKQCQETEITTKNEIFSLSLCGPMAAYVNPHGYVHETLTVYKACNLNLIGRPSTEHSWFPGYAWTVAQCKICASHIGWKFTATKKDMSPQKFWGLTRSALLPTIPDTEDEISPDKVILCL
T2 sequence (Q16531 whole entry partner): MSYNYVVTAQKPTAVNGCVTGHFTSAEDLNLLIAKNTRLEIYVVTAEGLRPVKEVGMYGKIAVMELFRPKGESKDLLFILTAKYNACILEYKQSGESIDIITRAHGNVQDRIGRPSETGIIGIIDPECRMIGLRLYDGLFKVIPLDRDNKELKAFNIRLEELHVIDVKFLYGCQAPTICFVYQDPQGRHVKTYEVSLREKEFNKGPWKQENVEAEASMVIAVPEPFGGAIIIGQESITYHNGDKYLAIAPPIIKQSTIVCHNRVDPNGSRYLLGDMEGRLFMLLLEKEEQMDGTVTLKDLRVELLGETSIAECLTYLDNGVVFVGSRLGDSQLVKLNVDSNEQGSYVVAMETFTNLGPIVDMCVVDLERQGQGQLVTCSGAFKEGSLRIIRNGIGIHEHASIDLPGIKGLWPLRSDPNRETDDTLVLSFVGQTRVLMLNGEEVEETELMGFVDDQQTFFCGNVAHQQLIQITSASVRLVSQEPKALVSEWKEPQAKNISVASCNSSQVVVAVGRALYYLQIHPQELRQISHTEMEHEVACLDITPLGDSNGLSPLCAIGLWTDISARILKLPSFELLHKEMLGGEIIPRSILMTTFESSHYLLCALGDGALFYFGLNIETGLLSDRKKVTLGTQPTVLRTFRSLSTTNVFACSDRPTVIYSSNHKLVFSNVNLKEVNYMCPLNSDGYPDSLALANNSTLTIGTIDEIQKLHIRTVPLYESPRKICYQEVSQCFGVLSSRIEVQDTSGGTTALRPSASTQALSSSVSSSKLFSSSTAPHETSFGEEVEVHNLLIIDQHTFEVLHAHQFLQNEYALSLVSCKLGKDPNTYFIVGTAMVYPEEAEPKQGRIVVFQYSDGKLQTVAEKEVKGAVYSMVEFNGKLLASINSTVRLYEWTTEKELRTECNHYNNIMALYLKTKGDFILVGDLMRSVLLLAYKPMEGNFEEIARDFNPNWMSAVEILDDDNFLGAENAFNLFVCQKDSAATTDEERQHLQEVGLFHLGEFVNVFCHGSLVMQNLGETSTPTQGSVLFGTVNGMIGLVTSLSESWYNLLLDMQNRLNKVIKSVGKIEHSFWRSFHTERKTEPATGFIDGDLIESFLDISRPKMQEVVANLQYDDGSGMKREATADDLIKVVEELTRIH
T7 sequence (P15170 whole entry): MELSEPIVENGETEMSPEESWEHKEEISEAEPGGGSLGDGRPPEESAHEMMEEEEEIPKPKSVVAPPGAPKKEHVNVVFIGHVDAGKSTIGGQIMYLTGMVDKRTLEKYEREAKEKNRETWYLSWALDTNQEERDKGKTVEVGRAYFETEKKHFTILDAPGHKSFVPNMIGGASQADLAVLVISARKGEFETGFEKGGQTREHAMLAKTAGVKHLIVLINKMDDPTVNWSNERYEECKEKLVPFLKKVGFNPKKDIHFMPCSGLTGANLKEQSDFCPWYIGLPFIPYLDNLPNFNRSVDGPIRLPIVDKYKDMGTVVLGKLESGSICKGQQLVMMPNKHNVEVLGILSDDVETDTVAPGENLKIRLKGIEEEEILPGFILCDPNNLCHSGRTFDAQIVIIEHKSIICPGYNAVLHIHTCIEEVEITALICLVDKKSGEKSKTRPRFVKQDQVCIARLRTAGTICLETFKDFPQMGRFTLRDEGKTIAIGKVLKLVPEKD
T7 sequence (Q96SW2 whole entry): as the sequence (Q96SW2 whole entry) above
T7 sequence (Q16531 whole entry partner): as the sequence (Q16531 whole entry partner) above
T5 sequence (Q9UKT9 whole entry): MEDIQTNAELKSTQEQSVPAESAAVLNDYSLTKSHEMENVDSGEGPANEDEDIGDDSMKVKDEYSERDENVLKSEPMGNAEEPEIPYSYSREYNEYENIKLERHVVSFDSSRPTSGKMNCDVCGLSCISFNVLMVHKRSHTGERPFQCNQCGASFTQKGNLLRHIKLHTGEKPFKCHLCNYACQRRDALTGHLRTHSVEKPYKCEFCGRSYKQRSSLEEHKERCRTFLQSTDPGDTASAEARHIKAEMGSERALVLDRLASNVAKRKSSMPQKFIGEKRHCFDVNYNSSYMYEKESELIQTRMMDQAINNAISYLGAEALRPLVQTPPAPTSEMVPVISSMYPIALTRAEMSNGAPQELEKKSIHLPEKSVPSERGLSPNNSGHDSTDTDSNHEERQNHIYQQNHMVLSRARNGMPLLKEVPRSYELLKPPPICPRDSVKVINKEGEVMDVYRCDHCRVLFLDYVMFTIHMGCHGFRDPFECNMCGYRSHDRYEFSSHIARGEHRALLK
T5 sequence (Q96SW2 whole entry): as the sequence (Q96SW2 whole entry) above
T5 sequence (Q16531 whole entry partner): as the sequence (Q16531 whole entry partner) above
T3 sequence (P48729 whole entry): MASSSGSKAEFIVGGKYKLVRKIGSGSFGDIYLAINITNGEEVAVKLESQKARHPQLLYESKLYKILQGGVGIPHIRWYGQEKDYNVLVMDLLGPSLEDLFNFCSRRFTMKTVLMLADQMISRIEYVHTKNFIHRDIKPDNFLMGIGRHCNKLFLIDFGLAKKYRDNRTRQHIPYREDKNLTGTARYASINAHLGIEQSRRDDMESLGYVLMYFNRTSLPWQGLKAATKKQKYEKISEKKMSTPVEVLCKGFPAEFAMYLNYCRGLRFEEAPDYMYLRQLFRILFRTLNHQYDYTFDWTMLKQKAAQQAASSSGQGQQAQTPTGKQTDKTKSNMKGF
T3 sequence (Q96SW2 whole entry): as the sequence (Q96SW2 whole entry) above
T3 sequence (Q16531 whole entry partner): as the sequence (Q16531 whole entry partner) above
T1 sequence (Q13422 whole entry): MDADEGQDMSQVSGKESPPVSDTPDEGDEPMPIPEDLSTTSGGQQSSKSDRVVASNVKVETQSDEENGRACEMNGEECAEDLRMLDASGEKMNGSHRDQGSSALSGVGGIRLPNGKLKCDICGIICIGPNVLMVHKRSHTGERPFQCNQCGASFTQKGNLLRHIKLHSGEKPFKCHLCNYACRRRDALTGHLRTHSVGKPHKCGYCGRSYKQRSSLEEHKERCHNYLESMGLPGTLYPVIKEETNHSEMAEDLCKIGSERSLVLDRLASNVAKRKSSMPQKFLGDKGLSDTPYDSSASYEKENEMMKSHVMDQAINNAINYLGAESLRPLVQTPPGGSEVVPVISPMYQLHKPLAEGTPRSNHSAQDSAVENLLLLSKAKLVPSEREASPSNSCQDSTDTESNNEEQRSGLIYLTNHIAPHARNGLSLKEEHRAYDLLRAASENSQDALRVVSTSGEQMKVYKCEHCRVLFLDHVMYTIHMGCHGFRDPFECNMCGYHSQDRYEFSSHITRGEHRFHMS
T1 sequence (Q96SW2 whole entry): as the sequence (Q96SW2 whole entry) above
T1 sequence (Q16531 whole entry partner): as the sequence (Q16531 whole entry partner) above
T4 sequence (Q96SW2 whole entry): as the sequence (Q96SW2 whole entry) above

SMILES: CC(C)c1cc2c(C3=CCN(Cc4ccc5c(c4)C(=O)N(C4CCC(=O)NC4=O)C5=O)CC3)ncnc2s1 (stereo not drawn) [GT-06656, 2-(2,6-dioxopiperidin-3-yl)-5-((4-(6-isopropylthieno[2,3-d]pyrimidin-4-yl)-3,6-dihydropyridin-1(2H)-yl)methyl)isoindoline-1,3-dione]
- IKZF 1 substrate protein remaining % (IKZF1): A (0% ≤ substrate protein remaining % ≤ 80%)
- IKZF2 substrate protein remaining % (IKZF2): A (0% ≤ substrate protein remaining % ≤ 80%)
- IC50 [1]: 10 to 50 nM
- CK1a substrate protein remaining % (CK1α): B (80%< substrate protein remaining %≤ 100%)
- IC50 [2]: 1 to 1.5 µM
- IC50 (MV-4-11): 10 to 50 nM
- IKZF3 substrate protein remaining % (IKZF3): A (0% ≤ substrate protein remaining % ≤ 80%)
- Weel substrate protein remaining % (WEE1): A (0% ≤ substrate protein remaining % ≤ 80%)
- IC50 (Jurkat): 50 to 100 nM
- IC50 (CCRF-CEM): 10 to 50 nM
- GSPT1 substrate protein remaining % (GSPT1): A (0% ≤ substrate protein remaining % ≤ 80%)
- IC50 (MM.1S): 100 to 500 nM

SMILES: O=C1CCC(N2C(=O)c3ccc(CN4CC=C(c5nccc(Cl)c5Cl)CC4)cc3C2=O)C(=O)N1 (stereo not drawn) [GT-06608, 5-((3,4-dichloro-3',6'-dihydro-[2,4'-bipyridin]-1'(2'H)-yl)methyl)-2-(2,6-dioxopiperidin-3-yl)isoindoline-1,3-dione]
- IKZF 1 substrate protein remaining % (IKZF1): B (80%< substrate protein remaining %≤ 100%)
- IKZF2 substrate protein remaining % (IKZF2): B (80%< substrate protein remaining %≤ 100%)
- IC50 [1]: 100 to 500 nM
- CK1a substrate protein remaining % (CK1α): B (80%< substrate protein remaining %≤ 100%)
- IC50 [2]: 1 to 1.5 µM
- IC50 (MV-4-11): 10 to 50 nM
- IKZF3 substrate protein remaining % (IKZF3): B (80%< substrate protein remaining %≤ 100%)
- Weel substrate protein remaining % (WEE1): B (80%< substrate protein remaining %≤ 100%)
- IC50 (Jurkat): 100 to 500 nM
- IC50 (CCRF-CEM): 100 to 500 nM
- GSPT1 substrate protein remaining % (GSPT1): A (0% ≤ substrate protein remaining % ≤ 80%)
- IC50 (MM.1S): 100 to 500 nM

SMILES: O=C1CCC(N2C(=O)c3ccc(CN4CC(=C5CCOc6cc(F)ccc65)C4)cc3C2=O)C(=O)N1 (stereo not drawn) [GT-08134, 2-(2,6-dioxopiperidin-3-yl)-5-((3-(7-fluorochroman-4-ylidene)azetidin-1-yl)methyl)isoindoline-1,3-dione]
- IKZF 1 substrate protein remaining % (IKZF1): A (0% ≤ substrate protein remaining % ≤ 80%)
- IKZF2 substrate protein remaining % (IKZF2): A (0% ≤ substrate protein remaining % ≤ 80%)
- CK1a substrate protein remaining % (CK1α): B (80%< substrate protein remaining %≤ 100%)
- inhibition at 0.01 µM (Kasumi-1; Kasumi 1, read-out: Inhibition rate (%) at 10 nM): 10 to 15%
- inhibition at 0.5 µM (Kasumi-1; Kasumi 1, read-out: Inhibition rate (%) at 500 nM): 60 to 80%
- IKZF3 substrate protein remaining % (IKZF3): A (0% ≤ substrate protein remaining % ≤ 80%)
- Weel substrate protein remaining % (WEE1): B (80%< substrate protein remaining %≤ 100%)
- inhibition at 0.01 µM (CCRF-CEM; read-out: Inhibition rate (%) at 10 nM): 15 to 20%
- inhibition at 0.5 µM (CCRF-CEM; read-out: Inhibition rate (%) at 500 nM): 60 to 80%
- GSPT1 substrate protein remaining % (GSPT1): A (0% ≤ substrate protein remaining % ≤ 80%)
- inhibition at 0.01 µM ([3]; MDA-MB-231, read-out: Inhibition rate (%) at 10 nM): 30 to 40%
- inhibition at 0.5 µM ([3]; MDA-MB-231, read-out: Inhibition rate (%) at 500 nM): 20 to 30%
